Test results published in PubChem BioAssay AID1745844 (Carcinogenic Potency Database (CPDB), 2022).
“And” between values parts separate entries of the source, which are not always exact repeats. Equal entries are not always repeated. The source made the active and inactive calls. The rule behind the calls is not given here.

Test system: rodent lifetime carcinogenesis bioassay, tumor incidence TD50
Assay: chronic cancer bioassays in animals – CPDB, compiled studies (AID 1745844)
Conditions: study length 104 weeks

O=C1CCc2ccccc2O1
TD50 (mouse, strain B6C3F1, females, by gavage, site: all sites, lesion: hemangioma + hemangiosarcoma, dosed 103 weeks): 4810 mg/kg/day | TD50 (mouse, strain B6C3F1, females, by gavage, site: all sites, lesion: hemangiosarcoma, dosed 103 weeks): 6140 mg/kg/day | TD50 (mouse, strain B6C3F1, females, by gavage, site: any site (literature study), lesion: several types, types named in the paper, dosed 103 weeks): 541 mg/kg/day | TD50 (mouse, strain B6C3F1, females, by gavage, site: liver, lesion: hepatocellular adenoma + hepatoblastoma + hepatocellular carcinoma, dosed 103 weeks): 723 mg/kg/day | TD50 (mouse, strain B6C3F1, females, by gavage, site: liver, lesion: hepatocellular adenoma + hepatocellular carcinoma, dosed 103 weeks): 723 mg/kg/day | TD50 (mouse, strain B6C3F1, females, by gavage, site: liver, lesion: hepatocellular adenoma, dosed 103 weeks): 790 mg/kg/day | TD50 (mouse, strain B6C3F1, females, by gavage, site: lung, lesion: alveolar/bronchiolar adenoma + alveolar/bronchiolar carcinoma, dosed 103 weeks): 96100 mg/kg/day | TD50 (mouse, strain B6C3F1, males, by gavage, site: all sites, lesion: histiocytic sarcoma + malignant lymphoma, histiocytic type + malignant lymphoma, lymphocytic type + malignant lymphoma, dosed 103 weeks): 3320 mg/kg/day | TD50 (mouse, strain B6C3F1, males, by gavage, site: all sites, lesion: malignant lymphoma, histiocytic type + malignant lymphoma, mixed type + malignant lymphoma, lymphocytic type + malignant lymph, dosed 103 weeks): 3780 mg/kg/day (inactive) | TD50 (mouse, strain B6C3F1, males, by gavage, site: any site (literature study), lesion: several types, types named in the paper, dosed 103 weeks): 1400 mg/kg/day | TD50 (mouse, strain B6C3F1, males, by gavage, site: liver, lesion: hepatocellular adenoma + hepatoblastoma + hepatocellular carcinoma, dosed 103 weeks): 2890 mg/kg/day | TD50 (mouse, strain B6C3F1, males, by gavage, site: lung, lesion: alveolar/bronchiolar adenoma + alveolar/bronchiolar carcinoma, dosed 103 weeks): 3260 mg/kg/day | TD50 (mouse, strain B6C3F1, males, by gavage, site: lung, lesion: alveolar/bronchiolar adenoma, dosed 103 weeks): 596 mg/kg/day | TD50 (rat, strain Fischer 344, females, by gavage, site: adrenal medulla, lesion: pheochromocytoma benign, bilateral + pheochromocytoma, benign, dosed 103 weeks): 538 mg/kg/day (inactive) | TD50 (rat, strain Fischer 344, females, by gavage, site: any site (literature study), lesion: several types, types named in the paper, dosed 103 weeks): 3180 mg/kg/day | TD50 (rat, strain Fischer 344, males, by gavage, site: any site (literature study), lesion: several types, types named in the paper, dosed 38 weeks): 1370 mg/kg/day | TD50 (rat, strain Fischer 344, males, by gavage, site: any site (literature study), lesion: several types, types named in the paper, dosed 64 weeks): 186 mg/kg/day | TD50 (rat, strain Fischer 344, males, by gavage, site: any site (literature study), lesion: several types, types named in the paper, dosed 103 weeks): 143 mg/kg/day | TD50 (rat, strain Fischer 344, males, by gavage, site: kidney, lesion: transitional-cell carcinoma, dosed 103 weeks): 11800 mg/kg/day | TD50 (rat, strain Fischer 344, males, by gavage, site: kidney, lesion: tubule adenoma, dosed 38 weeks): 310 mg/kg/day | TD50 (rat, strain Fischer 344, males, by gavage, site: kidney, lesion: tubule adenoma, dosed 64 weeks): 408 mg/kg/day | TD50 (rat, strain Fischer 344, males, by gavage, site: kidney, lesion: tubule adenoma, dosed 103 weeks): 3870 mg/kg/day and 2970 mg/kg/day | TD50 (rat, strain Fischer 344, males, by gavage, site: liver, lesion: hepatocellular adenoma + hepatoblastoma + hepatocellular carcinoma, dosed 38 weeks): 819 mg/kg/day | TD50 (rat, strain Fischer 344, males, by gavage, site: liver, lesion: hepatocellular adenoma + hepatoblastoma + hepatocellular carcinoma, dosed 103 weeks): 1380 mg/kg/day | TD50 (rat, strain Fischer 344, males, by gavage, site: skin, lesion: basal-cell adenoma + keratoacanthoma + squamous-cell papilloma, dosed 64 weeks): 258 mg/kg/day | TD50 (rat, strain Fischer 344, males, by gavage, site: skin, lesion: basal-cell adenoma, dosed 64 weeks): 378 mg/kg/day | TD50 (rat, strain Fischer 344, males, by gavage, site: skin, lesion: fibroma, dosed 64 weeks): 403 mg/kg/day | TD50 (rat, strain Fischer 344, males, by gavage, site: testis, lesion: interstitial-cell adenoma, dosed 64 weeks): 51.7 mg/kg/day | TD50 (rat, strain Fischer 344, males, by gavage, site: testis, lesion: interstitial-cell adenoma, dosed 103 weeks): 70.6 mg/kg/day

CC(C)(CCCOc1ccc(OCCCC(C)(C)C(=O)O)c(-c2ccccc2)c1)C(=O)O
TD50 (mouse, strain B6C3F1, females, in feed, site: liver, lesion: hepatocellular adenoma, dosed 104 weeks): 90.6 mg/kg/day | TD50 (mouse, strain B6C3F1, females, in feed, site: liver, lesion: hepatocellular carcinoma, dosed 104 weeks): 402 mg/kg/day | TD50 (mouse, strain B6C3F1, females, in feed, site: liver, lesion: several types, types named in the paper, dosed 104 weeks): 72.3 mg/kg/day | TD50 (mouse, strain B6C3F1, males, in feed, site: liver, lesion: hepatocellular adenoma, dosed 104 weeks): 107 mg/kg/day | TD50 (mouse, strain B6C3F1, males, in feed, site: liver, lesion: hepatocellular carcinoma, dosed 104 weeks): 167 mg/kg/day | TD50 (mouse, strain B6C3F1, males, in feed, site: liver, lesion: several types, types named in the paper, dosed 104 weeks): 45 mg/kg/day
